Test results reported in patent US7989482B2, “Indoline anti-cancer agents” (Joyant Pharmaceuticals, Inc., priority 2008, dated 2011).
Read-outs that look alike come from different tables or passages of the source.

Columns and labels:
U937 cells = test: Cell viability assay (CELL-TITER-GLO) in U937 cells; format: cell-based; details: U937 cells, 48 hour treatment, cell viability, read-out: IC50 (μM) U937
Procedure: (§1) Cell viability assays were run using standard protocols known to those of skill in art. Cells were plated in 96 well plates at the density of 3,000-10,000 cells per well. Twenty four hours later, cells were treated with increasing concentration of test compounds (1 nM to 1 μM). After another 48 hour, cell survival was measured using CELL-TITER-GLO® reagent (Promega) following the protocol provided by the manufacture. The IC50 value was determined as the concentration of test compound that kills 50% of the cell population.
(§2) Cell viability data generated according to the protocol described in Example 97 was generated for representative compounds in A2058 and U937 cells.

A2058 cells = test: Cell viability assay (CELL-TITER-GLO) in A2058 cells; format: cell-based; details: A2058 cells, 48 hour treatment, cell viability, read-out: IC50 (μM) A2058
Procedure: as §1, §2

Structure (SMILES) | IC50 (U937 cells; Homo sapiens, U-937, 48 h) | IC50 (A2058 cells; Homo sapiens, A2058, 48 h) | other results
COC(=O)c1nc2oc1C13c4cc(ccc4O[C@@H]1Nc1c(-c4ccncc4)cccc13)C[C@H](NC(=O)[C@@H](O)C(C)C)C(=O)N[C@H]2C(C)C (some centres unmarked) [Example 41] | > 1 µM | > 1 µM | –
COC(=O)c1nc2oc1C13c4cc(ccc4O[C@@H]1Nc1c(-c4c(C)c(C)cc(C)c4C)cccc13)C[C@H](NC(=O)[C@@H](O)C(C)C)C(=O)N[C@H]2C(C)C (some centres unmarked) [Example 42] | > 1 µM | > 1 µM | –
CC(C)[C@H](O)C(=O)N[C@H]1Cc2ccc3c(c2)C2(C4=C(C5=NCCO5)N=C(O4)[C@H](C(C)C)NC1=O)c1ccccc1N[C@H]2O3 (some centres unmarked) [Example 43] | 0.697 µM | 0.533 µM | –
COC(=O)[C@@H]1COC(c2nc3oc2C24c5ccccc5N[C@H]2Oc2ccc(cc24)C[C@H](NC(=O)[C@@H](O)C(C)C)C(=O)N[C@H]3C(C)C)=N1 (some centres unmarked) [Example 44] | > 1 µM | > 1 µM | –
COC(=O)[C@H]1COC(c2nc3oc2C24c5ccccc5N[C@H]2Oc2ccc(cc24)C[C@H](NC(=O)[C@@H](O)C(C)C)C(=O)N[C@H]3C(C)C)=N1 (some centres unmarked) [Example 45] | 0.185 µM | 0.329 µM | –
CCC(O)(CC)C(=O)N[C@H]1Cc2ccc3c(c2)C2(C4=C(c5nc(C(=O)OC)co5)N=C(O4)[C@H](C(C)C)NC1=O)c1ccccc1N[C@H]2O3 (some centres unmarked) [Example 47] | 0.019 µM | 0.077 µM | –
COC(=O)c1coc(-c2nc3oc2C24c5ccccc5N[C@H]2Oc2ccc(cc24)C[C@H](NC(=O)[C@@H](O)C(C)(C)C)C(=O)N[C@H]3C(C)C)n1 (some centres unmarked) [Example 48] | 0.039 µM | 0.058 µM | –
COC(=O)c1coc(-c2nc3oc2C24c5ccccc5N[C@H]2Oc2ccc(cc24)C[C@H](NC(=O)[C@@H](O)C(C)(C)C)C(=O)N[C@H]3C(C)C)n1 (some centres unmarked) [Example 49] | – | – | IC50 (U937 cells): 0.04 µM; IC50 (A2058 cells): 0.049 µM
[H][C@@]1(C(=O)N[C@H]2Cc3ccc4c(c3)C3(C5=C(c6nc(C(=O)OC)co6)N=C(O5)[C@H](C(C)C)NC2=O)c2ccccc2N[C@H]3O4)CCCO1 (some centres unmarked) [Example 50] | 0.04 µM | 0.075 µM | –
COC(=O)c1coc(-c2nc3oc2C24c5ccccc5N[C@H]2Oc2ccc(cc24)C[C@H](NC(=O)C2(O)CCCCC2)C(=O)N[C@H]3C(C)C)n1 (some centres unmarked) [Example 51] | 0.04 µM | 0.056 µM | –
CCC(C)(O)C(=O)N[C@H]1Cc2ccc3c(c2)C2(C4=C(c5nc(C(=O)OC)co5)N=C(O4)[C@H](C(C)C)NC1=O)c1ccccc1N[C@H]2O3 (some centres unmarked) [Example 52] | 0.028 µM | 0.108 µM | –
CCC(C)(C)C(=O)N[C@H]1Cc2ccc3c(c2)C2(C4=C(c5nc(C(=O)OC)co5)N=C(O4)[C@H](C(C)C)NC1=O)c1ccccc1N[C@H]2O3 (some centres unmarked) [Example 53] | 0.068 µM | 0.357 µM | –
CCCCCCc1cccc2c1N[C@H]1Oc3ccc4cc3C21c1oc(nc1-c1nc(C(=O)OC)co1)[C@H](C(C)C)NC(=O)[C@@H](NC(=O)[C@@H](O)C(C)C)C4 (some centres unmarked) [Example 54] | 0.063 µM | 0.164 µM | –
CCC(O)(CC)C(=O)N[C@H]1Cc2ccc3c(c2)C2(C4=C(c5nc(C(=O)O)co5)N=C(O4)[C@H](C(C)C)NC1=O)c1ccccc1N[C@H]2O3 (some centres unmarked) [Example 55] | – | – | IC50 (U937 cells; Homo sapiens, U-937): 0.9 µM; IC50 (A2058 cells; Homo sapiens): > 1 µM
CC(C)[C@H](O)C(=O)N[C@H]1Cc2ccc3c(c2)C2(C4=C(c5nc(C(=O)O)co5)N=C(O4)[C@H](C(C)C)NC1=O)c1ccccc1N[C@H]2O3 (some centres unmarked) [Example 56] | – | – | IC50 (U937 cells; Homo sapiens, U-937): 0.736 µM; IC50 (A2058 cells; Homo sapiens): 0.841 µM
CNC(C(=O)N[C@H]1Cc2ccc3c(c2)C2(C4=C(c5nc(C(=O)OC)co5)N=C(O4)[C@H](C(C)C)NC1=O)c1ccccc1N[C@H]2O3)C(C)C (some centres unmarked) [Example 57] | 0.111 µM | 0.313 µM | –
CNC(=O)c1coc(-c2nc3oc2C24c5ccccc5N[C@H]2Oc2ccc(cc24)C[C@H](NC(=O)[C@@H](O)C(C)C)C(=O)N[C@H]3C(C)C)n1 (some centres unmarked) [Example 58] | > 1 µM | > 1 µM | –
CC(C)[C@H](O)C(=O)N[C@H]1Cc2ccc3c(c2)C2(C4=C(c5nc(C(=O)NC(C)(C)C)co5)N=C(O4)[C@H](C(C)C)NC1=O)c1ccccc1N[C@H]2O3 (some centres unmarked) [Example 59] | 0.604 µM | 0.514 µM | –
CC(C)[C@H](O)C(=O)N[C@H]1Cc2ccc3c(c2)C2(C4=C(c5nc(C(=O)N6CCCC6)co5)N=C(O4)[C@H](C(C)C)NC1=O)c1ccccc1N[C@H]2O3 (some centres unmarked) [Example 60] | 0.562 µM | 0.636 µM | –

Structure (SMILES) | IC50 (U937 cells; Homo sapiens, U-937, 48 h) | IC50 (A2058 cells; Homo sapiens, A2058, 48 h) | other results
CCCCNC(=O)c1coc(-c2nc3oc2C24c5ccccc5N[C@H]2Oc2ccc(cc24)C[C@H](NC(=O)[C@@H](O)C(C)C)C(=O)N[C@H]3C(C)C)n1 (some centres unmarked) [Example 62] | 0.192 µM | 0.243 µM | –
CC(C)[C@H](O)C(=O)N[C@H]1Cc2ccc3c(c2)C2(C4=C(c5nc(C(=O)N6CCN(C)CC6)co5)N=C(O4)[C@H](C(C)C)NC1=O)c1ccccc1N[C@H]2O3 (some centres unmarked) [Example 63] | – | – | IC50 (U937 cells; Homo sapiens, U-937): 0.162 µM; IC50 (A2058 cells; Homo sapiens): 0.247 µM
CC(C)[C@H](O)C(=O)N[C@H]1Cc2ccc3c(c2)C2(C4=C(c5nc(C(=O)NC6CCCc7ccccc76)co5)N=C(O4)[C@H](C(C)C)NC1=O)c1ccccc1N[C@H]2O3 (some centres unmarked) [Example 64] | 0.184 µM | 0.184 µM | –
CC(C)[C@H](O)C(=O)N[C@H]1Cc2ccc3c(c2)C2(C4=C(c5nc(C(=O)N(C)C)co5)N=C(O4)[C@H](C(C)C)NC1=O)c1ccccc1N[C@H]2O3 (some centres unmarked) [Example 65] | 0.235 µM | 0.553 µM | –
CC(C)[C@H](O)C(=O)N[C@H]1Cc2ccc3c(c2)C2(C4=C(c5nc(C(N)=O)co5)N=C(O4)[C@H](C(C)C)NC1=O)c1ccccc1N[C@H]2O3 (some centres unmarked) [Example 66] | 0.218 µM | 0.363 µM | –
COC(=O)c1nc(-c2nc3oc2C24c5ccccc5N[C@H]2Oc2ccc(cc24)CC(NC(=O)[C@@H](O)C(C)C)C(=O)N[C@H]3C(C)C)oc1C (some centres unmarked) [Example 67] | 0.024 µM | 0.047 µM | –
COC(=O)c1nc(-c2nc3oc2C24c5ccccc5N[C@H]2Oc2ccc(cc24)C[C@H](NC(=O)[C@@H](O)C(C)(C)C)C(=O)N[C@H]3C(C)C)oc1C (some centres unmarked) [Example 68] | 0.057 µM | 0.066 µM | –
CCC(O)(CC)C(=O)N[C@H]1Cc2ccc3c(c2)C2(C4=C(c5nc(C(=O)OC)c(C)o5)N=C(O4)[C@H](C(C)C)NC1=O)c1ccccc1N[C@H]2O3 (some centres unmarked) [Example 69] | 0.081 µM | 0.17 µM | –
COC(=O)c1nc(-c2nc3oc2C24c5ccccc5N[C@H]2Oc2ccc(cc24)C[C@H](NC(=O)[C@@H](O)CC(C)C)C(=O)N[C@H]3C(C)C)oc1C (some centres unmarked) [Example 70] | 0.065 µM | 0.08 µM | –
COc1ccc(-c2cnc(-c3nc4oc3C35c6ccccc6N[C@H]3Oc3ccc(cc35)CC(NC(=O)[C@@H](O)C(C)C)C(=O)N[C@H]4C(C)C)o2)cc1 (some centres unmarked) [Example 71] | > 1 µM | 0.639 µM | –
CC(C)[C@H](O)C(=O)NC1Cc2ccc3c(c2)C2(C4=C(c5ncc(-c6ccccc6)o5)N=C(O4)[C@H](C(C)C)NC1=O)c1ccccc1N[C@H]2O3 (some centres unmarked) [Example 72] | > 1 µM | > 1 µM | –
CCC(O)(CC)C(=O)N[C@H]1Cc2ccc3c(c2)C2(C4=C(c5nc(CO)co5)N=C(O4)[C@H](C(C)C)NC1=O)c1ccccc1N[C@H]2O3 (some centres unmarked) [Example 74] | – | – | IC50 (U937 cells; Homo sapiens, U-937): 0.11 µM; IC50 (A2058 cells; Homo sapiens): 0.292 µM
CCC(O)c1coc(-c2nc3oc2C24c5ccccc5N[C@H]2Oc2ccc(cc24)C[C@H](NC(=O)[C@@H](O)C(C)C)C(=O)N[C@H]3C(C)C)n1 (some centres unmarked) [Example 75] | 0.229 µM | 0.226 µM | –
COCc1coc(-c2nc3oc2C24c5ccccc5N[C@H]2Oc2ccc(cc24)C[C@H](NC(=O)[C@@H](O)C(C)C)C(=O)N[C@H]3C(C)C)n1 (some centres unmarked) [Example 76] | 0.127 µM | 0.114 µM | –
CCCCCCc1oc(-c2nc3oc2C24c5ccccc5N[C@H]2Oc2ccc(cc24)C[C@H](NC(=O)[C@@H](O)C(C)C)C(=O)N[C@H]3C(C)C)nc1C(=O)OC (some centres unmarked) [Example 77] | 0.018 µM | 0.08 µM | –
CC(C)[C@H](O)C(=O)N[C@H]1Cc2ccc3c(c2)C2(C4=C(c5ncco5)N=C(O4)[C@H](C(C)C)NC1=O)c1ccccc1N[C@H]2O3 (some centres unmarked) [Example 78] | 0.052 µM | 0.154 µM | –
Cc1coc(-c2nc3oc2C24c5ccccc5N[C@H]2Oc2ccc(cc24)C[C@H](NC(=O)[C@@H](O)C(C)C)C(=O)N[C@H]3C(C)C)n1 (some centres unmarked) [Example 79] | 0.071 µM | 0.174 µM | –
CCOC(=O)c1coc(-c2nc3oc2C24c5ccccc5N[C@H]2Oc2ccc(cc24)C[C@H](NC(=O)[C@@H](O)C(C)C)C(=O)N[C@H]3C(C)C)n1 (some centres unmarked) [Example 80] | 0.0013 µM | 0.021 µM | –
